# Columns and labels:
# Assay type in all cases: in vivo
# rice (Oryza sativa) = assay: Test B flooded paddy test; settings: Flood, scale 0 to 100
# Method in brief: (§1)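 Rice, umbrella sedge, duck salad and barnyardgrass grown to 2-leaf stage under flooded paddy conditions and treated with formulated test chemicals. Kept in greenhouse 13–15 days, then visually rated against untreated controls on a 0–100 scale (0 no effect, 100 complete control).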
# [1] = test system: duck salad (Heteranthera limosa); assay: Test B flooded paddy test; settings: Flood, scale 0 to 100
# Method in brief: as §1
# [2] = test system: umbrella sedge (Cyperus difformis); assay: Test B flooded paddy test; settings: Flood, scale 0 to 100
# Method in brief: as §1
# [3] = test system: barnyardgrass (Echinochloa crus-galli); assay: Test B flooded paddy test; settings: Flood
# Method in brief: as §1
# [4] = test system: crabgrass (Digitaria sanguinalis); assay: Test B pre/postemergence
# Method in brief: (§2)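 Under greenhouse conditions, seeded pots and young plants (1- to 4-leaf, 2 to 18 cm) were treated at the same time with test chemicals in a non-phytotoxic solvent mixture containing surfactant. Response was assessed visually after 13 to 15 days, from 0 (no effect) to 100 (complete control).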
# corn (Zea mays) = assay: Test B pre/postemergence
# Method in brief: as §2
# [5] = test system: wheat (Triticum aestivum); assay: Test B pre/postemergence
# Method in brief: as §2
# [6] = test system: cocklebur (Xanthium strumarium); assay: Test B pre/postemergence
# Method in brief: as §2
# [7] = test system: lambsquarters (Chenopodium album); assay: Test B pre/postemergence
# Method in brief: as §2
# [8] = test system: barnyardgrass (Echinochloa crus-galli); assay: Test B pre/postemergence
# Method in brief: as §2
# [9] = test system: pigweed (Amaranthus retroflexus); assay: Test B pre/postemergence
# Method in brief: as §2
# [10] = test system: velvetleaf (Abutilon theophrasti); assay: Test B pre/postemergence
# Method in brief: as §2
# [11] = test system: giant foxtail (Setaria faberii); assay: Test B pre/postemergence
# Method in brief: as §2
# [12] = test system: Surinam grass (Brachiaria decumbens); assay: Test B pre/postemergence
# Method in brief: as §2
# [13] = test system: morningglory (Ipomoea coccinea); assay: Test B pre/postemergence
# Method in brief: as §2
# [14] = test system: blackgrass (Alopecurus myosuroides); assay: Test B postemergence; settings: for Blackgrass plant response rating: scale 0 to 100 (0 no effect, 100 complete control); for Plant response rating, Blackgrass: 500 g ai/ha, scale 0 to 100
# Method in brief: as §2
# wild oat (Avena fatua) = assay: Test B postemergence; settings: for Oat, Wild plant response rating: scale 0 to 100 (0 no effect, 100 complete control); for Plant response rating, Oat, Wild: 500 g ai/ha, scale 0 to 100
# Method in brief: as §2
# [15] = 1000 g ai/ha, scale 0 (no effect) to 100 (complete control)
# [16] = Postemergence, 125 g ai/ha, scale 0 to 100 (0 no effect, 100 complete control)
# [17] = Postemergence, 500 g ai/ha, scale 0 to 100
# [18] = Preemergence, 125 g ai/ha, scale 0 to 100 (0 no effect, 100 complete control)
# [19] = Preemergence, 500 g ai/ha, scale 0 to 100 (0 no effect, 100 complete control)
# [20] = Postemergence, 62 g ai/ha, scale 0 to 100 (0 no effect, 100 complete control)
# [21] = Preemergence, 62 g ai/ha, scale 0 to 100, 0 no effect, 100 complete control
smiles,measurement,setting,value
CC(=O)NN=Cc1nc(C2CC2)nc(N)c1Br [Compound 51],"Plant response rating, Rice",rice (Oryza sativa); 1000 g ai/ha,0
same,"Plant response rating, Ducksalad",[1]; 1000 g ai/ha,0
same,"Plant response rating, Sedge, Umbrella",[2]; 1000 g ai/ha,0
same,"Plant response rating, Barnyardgrass",[3]; [15],0
same,Crabgrass plant response rating,[4]; [16],30
same,"Plant response rating, Crabgrass",[4]; [17],60
same,"Plant response rating, Crabgrass",[4]; [18],0
same,"Plant response rating, Crabgrass",[4]; [19],0
same,Corn plant response rating,corn (Zea mays); [16],0
same,"Plant response rating, Corn",corn (Zea mays); [17],0
same,"Plant response rating, Corn",corn (Zea mays); [18],0
same,"Plant response rating, Corn",corn (Zea mays); [19],0
same,Wheat plant response rating,[5]; [16],30
same,"Plant response rating, Wheat",[5]; [17],40
same,"Plant response rating, Wheat",[5]; [18],0
same,"Plant response rating, Wheat",[5]; [19],0
same,Cocklebur plant response rating,[6]; [16],80
same,"Plant response rating, Cocklebur",[6]; [17],90
same,"Plant response rating, Cocklebur",[6]; [18],0
same,"Plant response rating, Cocklebur",[6]; [19],20
same,Lambsquarters plant response rating,[7]; [16],80
same,"Plant response rating, Lambsquarters",[7]; [17],90
same,"Plant response rating, Lambsquarters",[7]; [19],80
same,Barnyardgrass plant response rating,[8]; [16],20
same,"Plant response rating, Barnyardgrass",[8]; [17],60
same,"Plant response rating, Barnyardgrass",[8]; [18],0
same,"Plant response rating, Barnyardgrass",[8]; [19],0
same,Pigweed plant response rating,[9]; [16],80
same,"Plant response rating, Pigweed",[9]; [17],90
same,"Plant response rating, Pigweed",[9]; [18],10
same,"Plant response rating, Pigweed",[9]; [19],70
same,Velvetleaf plant response rating,[10]; [16],70
same,"Plant response rating, Velvetleaf",[10]; [17],80
same,"Plant response rating, Velvetleaf",[10]; [18],0
same,"Plant response rating, Velvetleaf",[10]; [19],0
same,"Foxtail, Giant plant response rating",[11]; [16],0
same,"Plant response rating, Foxtail, Giant",[11]; [17],30
same,"Plant response rating, Foxtail, Giant",[11]; [18],0
same,"Plant response rating, Foxtail, Giant",[11]; [19],0
same,Surinam Grass plant response rating,[12]; [16],0
same,"Plant response rating, Surinam Grass",[12]; [17],40
same,"Plant response rating, Surinam Grass",[12]; [18],0
same,"Plant response rating, Surinam Grass",[12]; [19],0
same,Morningglory plant response rating,[13]; [16],80
same,"Plant response rating, Morningglory",[13]; [17],90
same,"Plant response rating, Morningglory",[13]; [18],0
same,"Plant response rating, Morningglory",[13]; [19],40
same,Blackgrass plant response rating,[14]; 125 g ai/ha,20
same,"Plant response rating, Blackgrass",[14],30
same,"Oat, Wild plant response rating",wild oat (Avena fatua); 125 g ai/ha,20
same,"Plant response rating, Oat, Wild",wild oat (Avena fatua),30
CCCOC(=O)c1nc(C2CC2)nc(N)c1Cl [Compound 75],"Plant response rating, Rice",rice (Oryza sativa); 125 g ai/ha,0
same,"Plant response rating, Rice",rice (Oryza sativa); 500 g ai/ha,70
same,"Plant response rating, Ducksalad",[1]; 125 g ai/ha,0
same,"Plant response rating, Ducksalad",[1]; 500 g ai/ha,70
same,"Plant response rating, Sedge, Umbrella",[2]; 125 g ai/ha,0
same,"Plant response rating, Sedge, Umbrella",[2]; 500 g ai/ha,10
same,"Plant response rating, Barnyardgrass","[3]; 125 g ai/ha, scale 0 to 100",0
same,"Plant response rating, Barnyardgrass","[3]; 500 g ai/ha, scale 0 to 100",70
same,Crabgrass plant response rating,[4]; [20],70
same,Crabgrass plant response rating,[4]; [16],80
same,"Plant response rating, Crabgrass",[4]; [21],80
same,"Plant response rating, Crabgrass",[4]; [18],90
same,Corn plant response rating,corn (Zea mays); [20],60
same,Corn plant response rating,corn (Zea mays); [16],70
same,"Plant response rating, Corn",corn (Zea mays); [21],50
same,"Plant response rating, Corn",corn (Zea mays); [18],80
same,Wheat plant response rating,[5]; [20],50
same,Wheat plant response rating,[5]; [16],70
same,"Plant response rating, Wheat",[5]; [21],30
same,"Plant response rating, Wheat",[5]; [18],70
same,Cocklebur plant response rating,[6]; [20],70
same,Cocklebur plant response rating,[6]; [16],100
same,"Plant response rating, Cocklebur",[6]; [21],90
same,"Plant response rating, Cocklebur",[6]; [18],90
same,Lambsquarters plant response rating,[7]; [20],90
same,Lambsquarters plant response rating,[7]; [16],100
same,"Plant response rating, Lambsquarters",[7]; [21],100
same,"Plant response rating, Lambsquarters",[7]; [18],100
same,Barnyardgrass plant response rating,[8]; [20],80
same,Barnyardgrass plant response rating,[8]; [16],90
same,"Plant response rating, Barnyardgrass",[8]; [21],60
same,"Plant response rating, Barnyardgrass",[8]; [18],80
same,Pigweed plant response rating,[9]; [20],80
same,Pigweed plant response rating,[9]; [16],90
same,"Plant response rating, Pigweed",[9]; [21],100
same,"Plant response rating, Pigweed",[9]; [18],100
same,Velvetleaf plant response rating,[10]; [20],70
same,Velvetleaf plant response rating,[10]; [16],100
same,"Plant response rating, Velvetleaf",[10]; [21],80
same,"Plant response rating, Velvetleaf",[10]; [18],100
same,"Foxtail, Giant plant response rating",[11]; [20],60
same,"Foxtail, Giant plant response rating",[11]; [16],80
same,"Plant response rating, Foxtail, Giant",[11]; [21],30
same,"Plant response rating, Foxtail, Giant",[11]; [18],90
same,Surinam Grass plant response rating,[12]; [20],70
same,Surinam Grass plant response rating,[12]; [16],80
same,"Plant response rating, Surinam Grass",[12]; [21],70
same,"Plant response rating, Surinam Grass",[12]; [18],80
same,Morningglory plant response rating,[13]; [20],100
same,Morningglory plant response rating,[13]; [16],100
same,"Plant response rating, Morningglory",[13]; [21],80
same,"Plant response rating, Morningglory",[13]; [18],100
same,Blackgrass plant response rating,[14]; 62 g ai/ha,50
same,Blackgrass plant response rating,[14]; 125 g ai/ha,60
same,"Oat, Wild plant response rating",wild oat (Avena fatua); 62 g ai/ha,50
same,"Oat, Wild plant response rating",wild oat (Avena fatua); 125 g ai/ha,60
CCCCOC(=O)c1nc(C2CC2)nc(N)c1Br [Compound 16],"Plant response rating, Rice",rice (Oryza sativa); 1000 g ai/ha,70
same,"Plant response rating, Ducksalad",[1]; 1000 g ai/ha,90
same,"Plant response rating, Sedge, Umbrella",[2]; 1000 g ai/ha,60
same,"Plant response rating, Barnyardgrass",[3]; [15],90
same,Crabgrass plant response rating,[4]; [16],30
same,"Plant response rating, Crabgrass",[4]; [17],80
same,"Plant response rating, Crabgrass",[4]; [18],70
same,Crabgrass plant response rating,[4]; [19],100
same,Corn plant response rating,corn (Zea mays); [16],30
same,"Plant response rating, Corn",corn (Zea mays); [17],80
same,"Plant response rating, Corn",corn (Zea mays); [18],30
same,Corn plant response rating,corn (Zea mays); [19],70
same,Wheat plant response rating,[5]; [16],30
same,"Plant response rating, Wheat",[5]; [17],60
same,"Plant response rating, Wheat",[5]; [18],50
same,Wheat plant response rating,[5]; [19],60
same,Cocklebur plant response rating,[6]; [16],90
same,"Plant response rating, Cocklebur",[6]; [17],100
same,"Plant response rating, Cocklebur",[6]; [18],70
same,Cocklebur plant response rating,[6]; [19],100
same,Lambsquarters plant response rating,[7]; [16],100
same,"Plant response rating, Lambsquarters",[7]; [17],100
same,"Plant response rating, Lambsquarters",[7]; [18],100
same,Lambsquarters plant response rating,[7]; [19],100
same,Barnyardgrass plant response rating,[8]; [16],70
same,"Plant response rating, Barnyardgrass",[8]; [17],90
same,"Plant response rating, Barnyardgrass",[8]; [18],30
same,Barnyardgrass plant response rating,[8]; [19],90
same,Pigweed plant response rating,[9]; [16],90
same,"Plant response rating, Pigweed",[9]; [17],100
same,"Plant response rating, Pigweed",[9]; [18],90
same,Pigweed plant response rating,[9]; [19],90
same,Velvetleaf plant response rating,[10]; [16],80
same,"Plant response rating, Velvetleaf",[10]; [17],90
same,"Plant response rating, Velvetleaf",[10]; [18],80
same,Velvetleaf plant response rating,[10]; [19],100
same,"Foxtail, Giant plant response rating",[11]; [16],30
same,"Plant response rating, Foxtail, Giant",[11]; [17],80
same,"Plant response rating, Foxtail, Giant",[11]; [18],30
same,"Foxtail, Giant plant response rating",[11]; [19],80
same,Surinam Grass plant response rating,[12]; [16],60
same,"Plant response rating, Surinam Grass",[12]; [17],90
same,"Plant response rating, Surinam Grass",[12]; [18],40
same,Surinam Grass plant response rating,[12]; [19],80
same,Morningglory plant response rating,[13]; [16],100
same,"Plant response rating, Morningglory",[13]; [17],100
same,"Plant response rating, Morningglory",[13]; [18],90
same,Morningglory plant response rating,[13]; [19],100
same,Blackgrass plant response rating,[14]; 125 g ai/ha,10
same,"Plant response rating, Blackgrass",[14],70
same,"Oat, Wild plant response rating",wild oat (Avena fatua); 125 g ai/ha,10
same,"Plant response rating, Oat, Wild",wild oat (Avena fatua),60
